Source: US7125838B1, “Peptides containing N-substituted L-amino acids for preventing β-strand association” (Senexis Limited, priority 1999, dated 2006)
Non-standard residues stand in square brackets, D forms with d. Residues, ends and D or L forms follow the SMILES beside them. NMeR = CN[C@@H](CCCNC(=N)N)C(=O)O; NMeF = CN[C@@H](Cc1ccccc1)C(=O)O; NMeL = CN[C@@H](CC(C)C)C(=O)O

Key:
[1] = system: Aβ peptide; test: Inhibition of Aβ peptide aggregation into β-sheets (method not described); assay type: biochemical
[2] = Solubility in aqueous solutions; assay type: physicochemical; details: over a wide range of pH values, completely soluble
Source text: The two positively charged arginine side chains assist the peptide to penetrate cell membranes and the blood-brain barrier by making electrostatic interactions with the negatively charged phosphate head groups of their constituent phospholipid molecules, resulting in the formation of inverted micelles which carry the peptide molecules across these membranes.

[3] = biological target: T1, synthetic peptide fragment corresponding to residues 11 to 25 of the Alzheimer's Aβ peptide (Homo sapiens, UniProt P05067); test: Thioflavin T fluorescence assay of Aβ peptide fragment aggregation into amyloid fibrils; assay type: biochemical
T1 construct: synthetic peptide fragment corresponding to residues 11 to 25 of the Alzheimer's Aβ peptide; host or cells: chemical synthesis (synthetic peptide)
Procedure: The capacity of Peptide X (SEQ ID NO:2) to inhibit the aggregation of a synthetic peptide fragment corresponding to residues 11 to 25 of the Alzheimer's Aβ peptide into amyloid fibrils was determined quantitatively using a standard assay based on the amyloid-dependent fluorescence of thioflavin T at 482 nm (Levine, 1993).
Peptide X (SEQ ID NO:2) was dissolved in water to a concentration of 10 mM (about 10 mg/ml). Alzheimer's Aβ peptide fragment, at a concentration of 50 μM (about 0.1 mg/ml) in 50 mM sodium acetate buffer (pH 5.0), was incubated at 25° C. in the absence or presence of Peptide X at concentrations ranging from 100 μM to 1 mM; the aggregation of the Aβ peptide fragment into insoluble β-fibres in the solutions was determined quantitatively after 20 minutes by measuring the fluorescence of […] added thioflavin T at 482 nm using an excitation wavelength of 440 nm.

solubility [2] [mM]	solubility ([2]; approximate equivalent of 10 mM) [µg/mL]	inhibition at 100 µM ([3]; 100 μM Peptide X, 50 μM Aβ fragment, 50 mM sodium acetate pH 5.0, 25° C., 20 minutes, thioflavin T at 482 nm) [%]	reduction in Alzheimer's Aβ peptide aggregation (FIG. 6) ([3]; Peptide X concentration of 100 μM) [%]	Compound	inhibiting Aβ peptide aggregation into β-sheets [1]	disaggregation of preformed amyloid fibrils ([3]; Peptide X added to the Aβ peptide fragment after incubation)
				(L-arginine)-(L-lysine)-(L-valine)-(Nα-methyl-L-phenylalanine)-(L-tyrosine)-(L-threonine)-(L-tryptophan) [Arg-Lys-Val-mePhe-Tyr-Thr-Trp]	effective	
≥ 10	≥ 10000	> 70	70	CC(=O)N[C@@H](CCCNC(=N)N)C(=O)N(C)[C@@H](CCCNC(=N)N)C(=O)N[C@@H](CC(C)C)C(=O)N(C)[C@@H](CC(C)C)C(=O)N[C@@H](Cc1ccccc1)C(=O)N(C)[C@@H](Cc1ccccc1)C(N)=O [Peptide X, Nα-acetyl-(L-arginine)-(Nα-methyl-L-arginine)-(L-leucine)-(Nα-methyl-L-leucine)-(L-phenylalanine)-(Nα-methyl-L-phenylalanine)-NH2] (Ac-R[NMeR]L[NMeL]F[NMeF]-NH2)		able to disaggregate preformed amyloid fibrils
